Experiments:
[1] = refractive index (Na D-line) (dimensionless); conditions: 101.33 kPa, Liquid, Standard Abbe refractometry
[2] = for speed of sound / mass density / viscosity: 101.33 kPa, Liquid; for speed of sound: VIBRATING TUBE DENSIMETER; for mass density: Vibrating tube method; for surface tension liquid-gas: Ring tensiometer; for viscosity: Capillary tube (Ostwald / Ubbelohde) method

CCCCn1cc[n+](C)c1.F[P-](F)(F)(F)(F)F [1-butyl-3-methylimidazolium hexafluorophosphate]
Conditions	mass density, [2] [kg/m3]	refractive index, [1]	speed of sound, [2] [m/s]	surface tension liquid-gas, [2] [mN/m]	viscosity, [2] [mPa·s]
278.15 K	1384.36	–	1492.5	–	–
283.15 K	1380.1	1.41332	1480.8	–	–
288.15 K	1375.83	1.41198	1468.2	43.7	–
293.15 K	1371.56	1.41069	1455.3	43.2	340.49
298.15 K	1367.3	1.40937	1442.8	42.9	247.06
303.15 K	1363.03	1.40808	1430.6	42.6	184.23
308.15 K	1358.76	1.40674	1419	42.2	140.57
313.15 K	1354.53	1.40543	1406.4	41.8	108.9
318.15 K	1350.32	1.40411	1394.9	–	85.9
323.15 K	1346.12	1.40282	1383.5	–	68.79
328.15 K	1341.97	1.40151	1372.2	–	–
333.15 K	1337.83	1.40024	1360.9	–	–
338.15 K	1333.7	1.39896	1349.2	–	–
343.15 K	1329.61	1.39771	1337.2	–	–

CCCCCCn1cc[n+](C)c1.F[P-](F)(F)(F)(F)F [1-hexyl-3-methylimidazolium hexafluorophosphate]
[2]
Conditions	speed of sound [m/s]	surface tension liquid-gas [mN/m]	viscosity [mPa·s]
278.15 K	1490.7	–	–
283.15 K	1470.8	–	–
288.15 K	1453.6	–	–
293.15 K	1438.3	37.5	676.82
298.15 K	1424.2	37.1	475.66
303.15 K	1411	36.8	342.52
308.15 K	1398.5	36.5	252.69
313.15 K	1386.4	36.1	187.36
318.15 K	1374.6	–	143.58
323.15 K	1363	–	111.9
328.15 K	1351.7	–	–
333.15 K	1340.3	–	–
338.15 K	1329.3	–	–
343.15 K	1318.4	–	–

CCCCCCCC[n+]1ccn(C)c1.F[P-](F)(F)(F)(F)F [1-octyl-3-methylimidazolium hexafluorophosphate]
Conditions	mass density, [2] [kg/m3]	refractive index, [1]	speed of sound, [2] [m/s]	surface tension liquid-gas, [2] [mN/m]	viscosity, [2] [mPa·s]
278.15 K	1251.83	–	1481.6	–	–
283.15 K	1247.65	1.42716	1460	–	–
288.15 K	1243.43	1.42578	1440.8	–	–
293.15 K	1239.57	1.4244	1423.7	36.5	999.08
298.15 K	1235.72	1.42302	1407.8	36.2	690.6
303.15 K	1231.88	1.42165	1393	35.9	489.02
308.15 K	1228.04	1.42028	1378.9	35.6	355.31
313.15 K	1224.21	1.41887	1365.8	35.2	263.23
318.15 K	1220.37	1.41749	1353.2	–	196.23
323.15 K	1216.62	1.4161	1341	–	150.57
328.15 K	1212.92	1.41471	1329.1	–	–
333.15 K	1209.21	1.41334	1317.5	–	–
338.15 K	1205.51	1.41195	1305.8	–	–
343.15 K	1201.82	1.41056	1294.6	–	–

Reference: the NIST ThermoML archive (doi:10.1016/j.jct.2006.12.005)
